Measurements reported in ChEMBL document CHEMBL1201862, “PubChem BioAssay data set” (2004).
Active and inactive are the calls of the source.

Tests used:
cells = type: functional, cell-based
[1] = cytotoxicity in HEK-293T cells, dose response, cytotoxicity control for TCR NF-kB inhibitor project, luminescence, T-cell screen hits (AID 489026); type: functional, cell-based;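 note: cells exposed to compound about 14 hours before the viability readout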
[2] = Shn3 3'UTR reporter inhibitors, dose response, cell-based, Clone20 osteoblasts, firefly luciferase, cherry-picked (AID 624132); type: functional;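 note: firefly luciferase luminescence from reporter carrying the Shn3 3'UTR in osteoblasts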
Hexokinase HKDC1 [3] = target: T1, Hexokinase HKDC1 (Homo sapiens, UniProt Q2TB90); test: HKDC1 hexokinase inhibitors, dose response, biochemical, W721R variant (AID 504729); type: functional
T1 sequence (Q2TB90 whole entry): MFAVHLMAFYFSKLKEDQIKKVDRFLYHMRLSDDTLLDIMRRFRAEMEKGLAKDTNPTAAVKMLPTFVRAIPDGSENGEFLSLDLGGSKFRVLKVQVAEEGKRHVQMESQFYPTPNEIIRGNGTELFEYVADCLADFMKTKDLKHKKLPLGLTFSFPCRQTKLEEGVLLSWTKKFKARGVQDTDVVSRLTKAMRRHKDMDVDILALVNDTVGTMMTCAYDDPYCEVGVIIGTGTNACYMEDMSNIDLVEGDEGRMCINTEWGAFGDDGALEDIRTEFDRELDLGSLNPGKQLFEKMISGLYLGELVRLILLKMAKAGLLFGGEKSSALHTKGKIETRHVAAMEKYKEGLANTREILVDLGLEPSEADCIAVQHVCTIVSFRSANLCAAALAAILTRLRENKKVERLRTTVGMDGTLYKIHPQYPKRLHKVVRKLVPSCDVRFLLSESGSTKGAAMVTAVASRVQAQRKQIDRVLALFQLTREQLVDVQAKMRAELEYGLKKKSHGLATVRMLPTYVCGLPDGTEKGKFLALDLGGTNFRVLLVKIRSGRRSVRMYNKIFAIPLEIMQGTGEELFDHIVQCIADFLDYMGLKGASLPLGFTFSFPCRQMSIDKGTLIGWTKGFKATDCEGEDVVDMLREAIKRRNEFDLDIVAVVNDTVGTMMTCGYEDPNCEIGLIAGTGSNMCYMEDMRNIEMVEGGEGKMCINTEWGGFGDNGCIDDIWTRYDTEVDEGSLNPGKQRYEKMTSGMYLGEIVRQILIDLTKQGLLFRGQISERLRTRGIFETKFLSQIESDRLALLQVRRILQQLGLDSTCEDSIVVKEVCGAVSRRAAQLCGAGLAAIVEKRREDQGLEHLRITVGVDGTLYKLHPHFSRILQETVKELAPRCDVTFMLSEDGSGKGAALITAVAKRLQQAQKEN

Hexokinase HKDC1 [4] = target: T1, Hexokinase HKDC1; test: HKDC1 hexokinase inhibitors, SAR follow-up, biochemical, set 2 (AID 588355); type: functional
Caspase-6 = target: T2, Caspase-6 (Homo sapiens, UniProt P55212); test: human caspase-6 inhibitors, dose response, biochemical, VEID-R110 fluorescence, cherry-pick (AID 720632)
T2 sequence (P55212 whole entry): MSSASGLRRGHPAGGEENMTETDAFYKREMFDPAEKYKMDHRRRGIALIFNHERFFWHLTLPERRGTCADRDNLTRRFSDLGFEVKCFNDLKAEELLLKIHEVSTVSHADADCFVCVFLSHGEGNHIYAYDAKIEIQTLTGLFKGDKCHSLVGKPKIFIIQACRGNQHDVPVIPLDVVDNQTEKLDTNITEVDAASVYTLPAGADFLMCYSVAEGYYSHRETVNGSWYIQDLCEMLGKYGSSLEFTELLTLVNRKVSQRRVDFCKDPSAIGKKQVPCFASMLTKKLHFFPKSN

HeLa = test: HeLa cell cytotoxicity, dose response, cytotoxicity control, 24 h, cherry-picked samples (AID 504726); type: functional, cell-based; conditions: Homo sapiens;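 note: potency for cytotoxicity as loss of luminescence signal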
[5] = target: Tyrosyl-DNA phosphodiesterase 2 (Homo sapiens, UniProt O95551); test: human TDP2 enzyme inhibitors, dose response, biochemical, epi absorbance, IC50 (AID 743297)
Chain of Tyrosyl-DNA phosphodiesterase 2 (O95551 whole entry): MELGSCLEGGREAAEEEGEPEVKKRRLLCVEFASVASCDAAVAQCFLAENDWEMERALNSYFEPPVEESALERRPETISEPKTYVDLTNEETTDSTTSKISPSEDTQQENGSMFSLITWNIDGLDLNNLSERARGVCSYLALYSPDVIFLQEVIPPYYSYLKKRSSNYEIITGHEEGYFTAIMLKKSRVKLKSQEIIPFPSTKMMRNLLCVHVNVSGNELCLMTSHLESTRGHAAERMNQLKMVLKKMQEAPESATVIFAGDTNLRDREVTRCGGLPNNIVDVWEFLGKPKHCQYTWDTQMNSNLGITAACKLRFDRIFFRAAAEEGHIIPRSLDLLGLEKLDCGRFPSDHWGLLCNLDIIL
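Throughout, for EC50: proteasome chymotrypsin-like activity measured in U2OS cells; potency is for inhibition of proteasome activity.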

For `CCCCC(=O)NC(c1ccc(Cl)cc1)c1ccc2cccnc2c1O` (stereo not drawn), the EC50 (cells) was 59.9 µM (active), the IC50 [1] was > 80 µM (inactive) and the AC50 [2] was 0.772 µM (active).

With `CCc1ccc2c(c1)C(NC(C)=O)C(=O)N2CCN1CCOCC1` (stereo not drawn) the IC50 (Hexokinase HKDC1 [3]) was 6.27 µM (active), the IC50 (Hexokinase HKDC1 [4]) was 7.56 µM (active) and the AC50 (Caspase-6) was 11.9 µM (active).

For `COc1ccc2noc3c2c1C(=O)c1ccccc1-3`, the AC50 (HeLa) was 74.7 µM (active) and the IC50 [5] was 65.7 µM (inactive).
